{"source": "paper PMC5832847", "about": "“Rapid measurement of inhibitor binding kinetics by isothermal titration calorimetry” (Nature Communications, 2018)", "biological_target": "T1, prolyl oligopeptidase (POP) (Homo sapiens, UniProt P48147)", "T1 construct": "made in house; host or cells: E. coli BL21", "T1 sequence (P48147 1-710)": "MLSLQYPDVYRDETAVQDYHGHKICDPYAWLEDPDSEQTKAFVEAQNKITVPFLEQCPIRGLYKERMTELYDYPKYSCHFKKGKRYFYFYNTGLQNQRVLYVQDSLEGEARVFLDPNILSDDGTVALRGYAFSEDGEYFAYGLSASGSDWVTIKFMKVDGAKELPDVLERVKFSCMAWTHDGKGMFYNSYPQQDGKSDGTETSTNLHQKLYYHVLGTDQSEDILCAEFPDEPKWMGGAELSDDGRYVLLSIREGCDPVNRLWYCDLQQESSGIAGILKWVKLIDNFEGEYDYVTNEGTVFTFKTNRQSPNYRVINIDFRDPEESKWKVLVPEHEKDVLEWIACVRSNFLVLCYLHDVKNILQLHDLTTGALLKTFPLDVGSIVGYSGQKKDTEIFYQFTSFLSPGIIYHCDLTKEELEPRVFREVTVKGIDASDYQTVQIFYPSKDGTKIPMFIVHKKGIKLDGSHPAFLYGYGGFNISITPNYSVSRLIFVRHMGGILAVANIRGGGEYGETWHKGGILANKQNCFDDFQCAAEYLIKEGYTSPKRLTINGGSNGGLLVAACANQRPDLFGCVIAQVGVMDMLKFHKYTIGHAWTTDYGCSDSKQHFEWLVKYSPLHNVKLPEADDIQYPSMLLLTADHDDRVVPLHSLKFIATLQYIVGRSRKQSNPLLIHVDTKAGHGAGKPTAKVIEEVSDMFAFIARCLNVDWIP", "experiment": "ITC enthalpy of catalysis and Michaelis-Menten parameters with TRH", "type": "biochemical", "conditions": "30 °C", "description": "Prolyl oligopeptidase enthalpy of catalysis and Michaelis-Menten parameters.\nSupplementary Figure 3. Prolyl oligopeptidase and TRH enthalpy of catalysis. 3 injections (15 µL over 30 s) of Thyrotropin-releasing Hormone (TRH) (5.5 mM in syringe) into cell containing POP (250 nM in Cell) at 30 °C in buffer described above. Experiment was carried out using a Malvern VP -ITC.\nSupplementary Figure 4. Michaelis-Menten plot for prolyl oligopeptidase with TRH. 5 injections (8 µL, 6 […]\nThyrotropin -releasing Hormone (TRH) (27.6 mM in syringe) into cell containing POP (2.5 nM in Cell) at 30 °C in buffer described above. The enzyme velocity at several concentrations of substrate (black ope n circles) was extracted using the methods described in 13 and fit to Michaelis-Menten kinetics (blue curve).\nExperiment was carried out in Malvern VP -ITC. […]\nSupplementary Table 1. Summary of prolyl oligopeptidase 13 enzyme parameters with TRH. Determined by ITC using techniques presented by Gomez et al.\nEnthalpy of binding in kinetics of inhibition and initiation experiments . In the kinetics of inhibition and initiation experiments performed here, the instrument measures both the heat generated by enzymatic catalysis and the heat produced due direct interaction of the inhibitor with the enzyme. In order to estimate the relative magnitudes of these two effects, the enthalpy of binding was directly measured […]\n1000-fold greater, 5 µM) than those used in kinetics of inhibition and initiation experiments (Supplementary Fig. 5 ). Binding data were then modelled at the concentrations of enzyme and inhibitor and injection size and spacing used for the kinetic experiment for compound 5, with representative instrumental noise estimated from the basel ines, ΔHbind taken from Supplementary Table 2 and Ki taken as a previously reported value (0.5 nM) 14 (Supplementary Fig. 6).\nSupplementary Figure 5. Compound 5 prolyl o ligopeptidase binding experiments. Compound 5 (90 µM) was titrated into 5 µM POP in cell using a Malvern ITC-200 calorimeter. […]"}
{"substance": "thyrotropin-releasing hormone [TRH]", "values": [{"measurement": "Km", "result": 975, "unit": "µM"}, {"measurement": "kcat", "result": 42.19, "unit": "s⁻¹"}, {"measurement": "ΔHcat", "result": "-6.72 ± 0.06", "unit": "kcal/mol"}]}
